pIC50: −log10 of the molar value.
System: KRAS-mutant PDC multicell tumor spheroid viability
Experiment: Anticancer human tumor 521955-158-R2-J5-PDC patient-derived pancreatic carcinoma cell line growth inhibition [KRAS2]
Conditions: for viability, T/C: stronger effect = lower value
In short: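 Combination screen of spheroid viability in tumor-cell co-cultures with endothelial (HUVEC) and mesenchymal stem cell stroma. Each agent was tested in half-log dilutions, topping at clinical Cmax or at 10 microM without a known Cmax.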

[1] = curve of first compound, second compound 0.1 µM
[2] = curve of first compound, second compound 0.316 µM
[3] = curve of first compound, second compound 1 µM
[4] = curve of first compound, second compound 3.16 µM
[5] = second compound 0.1 µM, first compound 0.0316 µM
[6] = second compound 0.1 µM, first compound 0.1 µM
[7] = second compound 0.1 µM, first compound 0.316 µM
[8] = second compound 0.1 µM, first compound 1 µM
[9] = second compound 0.1 µM, first compound 3.16 µM
[10] = second compound 0.1 µM, first compound 10 µM
[11] = second compound 0.316 µM, first compound 0.0316 µM
[12] = second compound 0.316 µM, first compound 0.1 µM
[13] = second compound 0.316 µM, first compound 0.316 µM
[14] = second compound 0.316 µM, first compound 1 µM
[15] = second compound 0.316 µM, first compound 3.16 µM
[16] = second compound 0.316 µM, first compound 10 µM
[17] = second compound 1 µM, first compound 0.0316 µM
[18] = second compound 1 µM, first compound 0.1 µM
[19] = second compound 1 µM, first compound 0.316 µM
[20] = second compound 1 µM, first compound 1 µM
[21] = second compound 1 µM, first compound 3.16 µM
[22] = second compound 1 µM, first compound 10 µM
[23] = second compound 3.16 µM, first compound 0.0316 µM
[24] = second compound 3.16 µM, first compound 0.1 µM
[25] = second compound 3.16 µM, first compound 0.316 µM
[26] = second compound 3.16 µM, first compound 1 µM
[27] = second compound 3.16 µM, first compound 3.16 µM
[28] = second compound 3.16 µM, first compound 10 µM
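Also: viability read after seven days of drug exposure.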

SMILES	pIC50 [1]	pIC50 [2]	pIC50 [3]	pIC50 [4]	viability, T/C [5]	viability, T/C [6]	viability, T/C [7]	viability, T/C [8]	viability, T/C [9]	viability, T/C [10]	viability, T/C [11]	viability, T/C [12]	viability, T/C [13]	viability, T/C [14]	viability, T/C [15]	viability, T/C [16]	viability, T/C [17]	viability, T/C [18]	viability, T/C [19]	viability, T/C [20]	further results
CC(C)NCC(C(=O)N1CCN(c2ncnc3c2C(C)CC3O)CC1)c1ccc(Cl)cc1 (configuration not stated)	–	–	–	–	–	–	–	–	–	–	–	–	–	–	–	–	–	–	–	–	viability, T/C (compound 0.0316 µM): 100% [middle of 5 runs]; viability, T/C (compound 0.1 µM): 102% [middle of 5 runs]; viability, T/C (compound 0.316 µM): 83.8% [middle of 5 runs]; viability, T/C (compound 1 µM): 80.8% [middle of 5 runs]; viability, T/C (compound 3.16 µM): 84.4% [middle of 5 runs]; viability, T/C (compound 10 µM): 66.7% [middle of 5 runs]; pIC50 (curve of compound): < 5.00
CC(C)NCC(C(=O)N1CCN(c2ncnc3c2C(C)CC3O)CC1)c1ccc(Cl)cc1 (configuration not stated) + COc1cc2nc(C)nc(NC(C)c3cc(N)cc(C(F)(F)F)c3)c2cc1OC1CCOC1	< 5.00	< 5.00	< 5.00	< 5.00	89.3%	92.2%	70.4%	75.2%	70.9%	56.4%	95.9%	86%	71.7%	67.5%	71%	60.7%	81.3%	86.6%	60.2%	64.1%	pIC50 (curve of first compound, second compound 10 µM): 6.71; viability, T/C [21]: 63.7%; viability, T/C [22]: 60.8%; viability, T/C [23]: 87.3%; viability, T/C [24]: 93.1%; viability, T/C [25]: 72.2%; viability, T/C [26]: 56.8%; viability, T/C [27]: 59.4%; viability, T/C [28]: 43.5%; viability, T/C (second compound 10 µM, first compound 0.0316 µM): 48.7%; viability, T/C (second compound 10 µM, first compound 0.1 µM): 65.2%; viability, T/C (second compound 10 µM, first compound 0.316 µM): 43%; viability, T/C (second compound 10 µM, first compound 1 µM): 29.7%; viability, T/C (second compound 10 µM, first compound 3.16 µM): 14.3%; viability, T/C (second compound 10 µM, first compound 10 µM): 4.84%
COc1cc(Nc2ncc3c(n2)-c2ccc(Cl)cc2C(c2c(F)cccc2OC)=NC3)ccc1C(=O)O + C=CC(=O)N1CCN(c2nc(OCC3CCCN3C)nc3c2CCN(c2cccc4cccc(C)c24)C3)CC1CC#N	> 7.50	> 7.50	> 7.50	> 7.50	51.1%	28.1%	38.4%	36.3%	38.9%	38.2%	48.5%	27.2%	31.6%	38.8%	33.8%	42.2%	28.8%	28.7%	29.1%	27.7%	pIC50 (curve of first compound, second compound 0.0316 µM): > 7.50; viability, T/C (second compound 0.0316 µM, first compound 0.0316 µM): 41.5%; viability, T/C (second compound 0.0316 µM, first compound 0.1 µM): 33.7%; viability, T/C (second compound 0.0316 µM, first compound 0.316 µM): 50.5%; viability, T/C (second compound 0.0316 µM, first compound 1 µM): 46.2%; viability, T/C (second compound 0.0316 µM, first compound 3.16 µM): 38.5%; viability, T/C (second compound 0.0316 µM, first compound 10 µM): 40.5%; viability, T/C [21]: 26.9%; viability, T/C [22]: 32%; viability, T/C [23]: 1.52%; viability, T/C [24]: 1.29%; viability, T/C [25]: 0.17%; viability, T/C [26]: 6.1%; viability, T/C [27]: 1.44%; viability, T/C [28]: 0.25%

— PubChem BioAssay AID1963871 (Molecular Pharmacology Branch, DTP, NCI, 2024)
